For assay [1], the target named is T1, PE-labeled human PD-L1-Ig binding to Jurkat cell line over-expressing human PD-1 (Jurkat-PD-1) (Homo sapiens, UniProt Q15116).
T1 construct: expressed in transfected cells; host or cells: Jurkat
Briefly: Jurkat-PD-1 Cell Binding High-Content Screening Assay (CBA): Method 1. The note with it: Jurkat-PD-1 cells, PE-labeled PD-L1-Ig; μM; read-out: CBA Method 1 μM.

Assay [2] has as its target T1, PE-labeled human PD-L1-Ig binding to Jurkat cell line over-expressing human PD-1 (Jurkat-PD-1). Nature of the assay: Jurkat-PD-1 Cell Binding High-Content Screening Assay (CBA): Method 2 (presence and absence of tween-20). Particulars: Jurkat-PD-1 cells, PE-labeled PD-L1-Ig 20 nM, presence or absence of tween-20 not given. The procedure:
Jurkat-PD-1 Cell Binding High-Content Screening Assay (CBA): Method 2
Phycoerythrin (PE) was covalently linked to the Ig epitope tag of human PD-L1-Ig and fluorescently labeled PD-L1-Ig was used for binding studies with a Jurkat cell line over-expressing human PD-1 (Jurkat-PD-1). […] 100 nl of compound was added to cells followed by incubation at 37° C. for 2 hours. To interrogate potential issues with compound aggregation, compounds were tested in the presence and absence of tween-20 detergent. […] Then, 5 μl of PE-labeled PD-L1-Ig (20 nM final), diluted in DMEM supplemented with 10% fetal calf serum. […] Data was collected and processed using a Cell Insight NXT High Content Imager and associated software.

[3] abbreviates: head μM, read-out: CBA Method 2 μM.

SMILES strings stand for the structures. Bridge positions count the residues as written; N and C are the ends. Square brackets hold non-standard residues; d marks the D form. Peptide text beside a SMILES is read from it. * marks the point of attachment. Bip(4'-COOH) = N[C@@H](Cc1ccc(-c2ccc(C(=O)O)cc2)cc1)C(=O)O; Phe(3-CF3) = N[C@@H](Cc1cccc(C(F)(F)F)c1)C(=O)O; Ala(morpholin-4-yl) = N[C@@H](CN1CCOCC1)C(=O)O; Bip = N[C@@H](Cc1ccc(-c2ccccc2)cc1)C(=O)O; Phe(3-CN) = N#Cc1cccc(C[C@H](N)C(=O)O)c1; Phe(3-Me) = Cc1cccc(C[C@H](N)C(=O)O)c1; Cha = N[C@@H](CC1CCCCC1)C(=O)O; Carboxymethyl = O=C(O)C*; NMeA = CN[C@@H](C)C(=O)O; Nle = CCCC[C@H](N)C(=O)O; Orn = NCCC[C@H](N)C(=O)O; Dab = NCC[C@H](N)C(=O)O

T1 sequence (Q15116 25-288): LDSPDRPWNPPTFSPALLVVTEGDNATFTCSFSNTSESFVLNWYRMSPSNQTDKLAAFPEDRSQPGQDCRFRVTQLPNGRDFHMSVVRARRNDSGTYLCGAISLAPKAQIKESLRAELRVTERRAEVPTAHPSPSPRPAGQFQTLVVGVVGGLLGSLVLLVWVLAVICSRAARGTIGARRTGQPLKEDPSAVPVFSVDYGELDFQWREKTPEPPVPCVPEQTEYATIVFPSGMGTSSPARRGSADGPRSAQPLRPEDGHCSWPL

Take `CCCC[C@@H]1NC(=O)CSC[C@@H](C(=O)N[C@@H](CCN)C(N)=O)NC(=O)[C@H](CC(N)=O)NC(=O)[C@H](C(C)C)NC(=O)[C@H](CC2CCCCC2)NC(=O)[C@H](CCN)NC(=O)[C@@H](CC(C)C)NC(=O)[C@H](C)N(C)C(=O)[C@H](CCCN)NC(=O)[C@H](Cc2ccc(-c3ccccc3)cc2)NC(=O)[C@H](Cc2ccc(-c3ccc(C(=O)O)cc3)cc2)NC(=O)[C@H](Cc2cccc(C(F)(F)F)c2)NC(=O)[C@H](CC(=O)O)NC(=O)[C@H](Cc2ccc(-c3ccc(C(=O)O)cc3)cc2)NC1=O` [Example 5090] ({CH2CO}-[Nle][Bip(4'-COOH)]D[Phe(3-CF3)][Bip(4'-COOH)][Bip][Orn][NMeA][dL][Dab][Cha]VNC[Dab]-NH2; thioether N-14): the IC50 in assay [1] came out at 0.01 µM; in assay [2] (nM, read-out: CBA Method 2), 8.7 nM.

`Cc1cccc(C[C@@H]2NC(=O)[C@H](CC(=O)O)NC(=O)[C@H](Cc3ccc(OCC(=O)O)cc3)NC(=O)[C@H](CN3CCOCC3)NC(=O)CSC[C@@H](C(=O)N[C@@H](CCN)C(N)=O)NC(=O)[C@H](CCCN)NC(=O)[C@H](C(C)C)NC(=O)[C@H](CC3CCCCC3)NC(=O)[C@H](CCN)NC(=O)[C@@H](CC(C)C)NC(=O)[C@H](C)N(C)C(=O)[C@H](CCC(N)=O)NC(=O)[C@H](Cc3ccc(-c4ccccc4)cc3)NC(=O)[C@H](Cc3cccc(C#N)c3)NC2=O)c1` [Example 5030] ({CH2CO}-[Ala(morpholin-4-yl)]Y(Carboxymethyl)D[Phe(3-Me)][Phe(3-CN)][Bip]Q[NMeA][dL][Dab][Cha]V[Orn]C[Dab]-NH2; thioether N-14): the IC50 in assay [1] worked out at 0.0047 µM; in assay [2] (setting [3]), 4.3 nM.

On to `CCCC[C@@H]1NC(=O)CSC[C@@H](C(=O)N[C@@H](CCN)C(N)=O)NC(=O)[C@H](CCCN)NC(=O)[C@H](C(C)C)NC(=O)[C@H](CC2CCCCC2)NC(=O)[C@H](CCN)NC(=O)[C@@H](CC(C)C)NC(=O)[C@H](C)N(C)C(=O)[C@H](CCCN)NC(=O)[C@H](Cc2ccc(-c3ccccc3)cc2)NC(=O)[C@H](Cc2ccc(-c3ccc(C(=O)O)cc3)cc2)NC(=O)[C@H](Cc2cccc(C(F)(F)F)c2)NC(=O)[C@H](CC(=O)O)NC(=O)[C@H](Cc2ccc(-c3ccc(C(=O)O)cc3)cc2)NC1=O` [Example 5088] ({CH2CO}-[Nle][Bip(4'-COOH)]D[Phe(3-CF3)][Bip(4'-COOH)][Bip][Orn][NMeA][dL][Dab][Cha]V[Orn]C[Dab]-NH2; thioether N-14), for which the results for the IC50 in assay [1] and in assay [2] (setting [3]) were 0.09 µM and 200 nM, respectively.

With `COC[C@@H]1NC(=O)CSC[C@@H](C(=O)N[C@@H](CCN)C(N)=O)NC(=O)[C@H](CCCN)NC(=O)[C@H](C(C)C)NC(=O)[C@H](CC2CCCCC2)NC(=O)[C@H](CCN)NC(=O)[C@@H](CC(C)C)NC(=O)[C@H](C)N(C)C(=O)[C@H](CCC(N)=O)NC(=O)[C@H](Cc2ccc(-c3ccccc3)cc2)NC(=O)[C@H](Cc2ccc(-c3ccc(C(=O)O)cc3)cc2)NC(=O)[C@H](Cc2cccc(C)c2)NC(=O)[C@H](CC(=O)O)NC(=O)[C@H](Cc2ccc(OCC(=O)O)cc2)NC1=O` [Example 5057] ({CH2CO}-S(Me)Y(Carboxymethyl)D[Phe(3-Me)][Bip(4'-COOH)][Bip]Q[NMeA][dL][Dab][Cha]V[Orn]C[Dab]-NH2; thioether N-14), the IC50 was determined as 0.0089 µM in assay [1] and 10.6 nM in assay [2] (setting [3]).

`CC(C)C[C@H]1NC(=O)[C@H](C)N(C)C(=O)[C@H](CCCN)NC(=O)[C@H](Cc2ccc(-c3ccccc3)cc2)NC(=O)[C@H](Cc2ccc(-c3ccc(C(=O)O)cc3)cc2)NC(=O)[C@H](Cc2cccc(C(F)(F)F)c2)NC(=O)[C@H](CC(=O)O)NC(=O)[C@H](Cc2ccc(-c3ccc(C(=O)O)cc3)cc2)NC(=O)[C@H](Cc2ccc(OCC(=O)O)cc2)NC(=O)CSC[C@@H](C(=O)N[C@@H](CCN)C(N)=O)NC(=O)[C@H](CCC(=O)O)NC(=O)[C@H](C(C)C)NC(=O)[C@H](CC2CCCCC2)NC(=O)[C@H](CCN)NC1=O` [Example 5085] ({CH2CO}-Y(Carboxymethyl)[Bip(4'-COOH)]D[Phe(3-CF3)][Bip(4'-COOH)][Bip][Orn][NMeA][dL][Dab][Cha]VEC[Dab]-NH2; thioether N-14): the IC50 in assay [1] turned out to be 0.0315 µM; in assay [2] (setting [3]) it was 10 nM.

These data come from patent US20240409585A1, “MACROCYCLIC IMMUNOMODULATORS” (priority 2021, published 2024).
